Laboratory results reported in article PMC9329436, “Optimization of the 4-anilinoquin(az)oline scaffold as epidermal growth factor receptor (EGFR) inhibitors for chordoma utilizing a toxicology profiling assay platform” (Scientific Reports, 2022).
Read-outs that look alike come from different tables or passages of the source.

Columns and labels:
Type in all cases: biochemical
[1] = target: T1, 320 wild-type protein kinases (Homo sapiens, UniProt P54753); settings: singlicate
T1 sequence (P54753 34-998): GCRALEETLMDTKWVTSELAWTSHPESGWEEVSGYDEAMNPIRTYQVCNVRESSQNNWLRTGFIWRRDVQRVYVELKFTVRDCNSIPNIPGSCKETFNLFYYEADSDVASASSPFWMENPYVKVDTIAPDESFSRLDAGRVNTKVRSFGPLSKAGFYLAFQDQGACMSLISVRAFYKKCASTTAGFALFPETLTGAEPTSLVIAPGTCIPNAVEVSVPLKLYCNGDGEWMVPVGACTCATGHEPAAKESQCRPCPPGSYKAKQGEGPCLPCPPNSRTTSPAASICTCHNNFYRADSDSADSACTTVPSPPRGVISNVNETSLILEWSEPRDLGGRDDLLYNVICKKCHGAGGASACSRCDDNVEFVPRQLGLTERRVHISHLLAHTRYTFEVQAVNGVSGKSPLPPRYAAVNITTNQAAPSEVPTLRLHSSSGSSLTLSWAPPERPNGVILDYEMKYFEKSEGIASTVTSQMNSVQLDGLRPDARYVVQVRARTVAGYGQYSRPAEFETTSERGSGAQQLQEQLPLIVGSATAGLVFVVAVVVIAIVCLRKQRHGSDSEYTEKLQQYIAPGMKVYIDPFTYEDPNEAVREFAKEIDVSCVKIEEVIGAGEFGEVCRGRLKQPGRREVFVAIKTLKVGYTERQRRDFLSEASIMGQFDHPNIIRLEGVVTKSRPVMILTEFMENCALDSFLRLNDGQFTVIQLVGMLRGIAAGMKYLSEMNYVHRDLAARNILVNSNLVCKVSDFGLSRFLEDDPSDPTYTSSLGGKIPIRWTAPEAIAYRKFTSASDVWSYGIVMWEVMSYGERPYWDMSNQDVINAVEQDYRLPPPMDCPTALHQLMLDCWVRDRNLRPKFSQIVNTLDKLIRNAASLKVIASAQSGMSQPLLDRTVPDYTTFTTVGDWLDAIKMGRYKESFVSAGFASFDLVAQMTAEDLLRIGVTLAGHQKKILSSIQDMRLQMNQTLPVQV
Excerpt: (§1) Table S4. Profiling of two compounds at two concentrations against 320 wild-type protein kinases; singlicate measurement; Residual activities (% of control).

[2] = target: T2, 320 wild-type protein kinases (Homo sapiens, UniProt Q8TD08); settings: singlicate
T2 sequence (Q8TD08 1-544): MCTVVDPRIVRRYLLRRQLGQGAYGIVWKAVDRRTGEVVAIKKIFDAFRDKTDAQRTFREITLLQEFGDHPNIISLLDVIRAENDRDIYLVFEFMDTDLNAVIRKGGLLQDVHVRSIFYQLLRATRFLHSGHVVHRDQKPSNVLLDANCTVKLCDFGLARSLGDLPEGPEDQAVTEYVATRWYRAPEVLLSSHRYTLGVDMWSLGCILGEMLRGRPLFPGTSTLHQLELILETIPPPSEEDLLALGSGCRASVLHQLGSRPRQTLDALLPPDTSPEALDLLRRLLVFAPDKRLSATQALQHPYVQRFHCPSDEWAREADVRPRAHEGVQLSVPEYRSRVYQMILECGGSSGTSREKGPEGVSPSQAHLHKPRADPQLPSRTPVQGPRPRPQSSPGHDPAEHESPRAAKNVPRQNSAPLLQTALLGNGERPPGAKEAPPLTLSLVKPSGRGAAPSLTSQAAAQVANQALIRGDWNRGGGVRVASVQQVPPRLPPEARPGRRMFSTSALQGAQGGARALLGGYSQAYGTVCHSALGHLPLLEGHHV
Excerpt: as §1

[3] = target: T3, 320 wild-type protein kinases (Homo sapiens, UniProt Q9NWZ3); settings: IRAK4 (untagged), singlicate
T3 sequence (Q9NWZ3 1-460): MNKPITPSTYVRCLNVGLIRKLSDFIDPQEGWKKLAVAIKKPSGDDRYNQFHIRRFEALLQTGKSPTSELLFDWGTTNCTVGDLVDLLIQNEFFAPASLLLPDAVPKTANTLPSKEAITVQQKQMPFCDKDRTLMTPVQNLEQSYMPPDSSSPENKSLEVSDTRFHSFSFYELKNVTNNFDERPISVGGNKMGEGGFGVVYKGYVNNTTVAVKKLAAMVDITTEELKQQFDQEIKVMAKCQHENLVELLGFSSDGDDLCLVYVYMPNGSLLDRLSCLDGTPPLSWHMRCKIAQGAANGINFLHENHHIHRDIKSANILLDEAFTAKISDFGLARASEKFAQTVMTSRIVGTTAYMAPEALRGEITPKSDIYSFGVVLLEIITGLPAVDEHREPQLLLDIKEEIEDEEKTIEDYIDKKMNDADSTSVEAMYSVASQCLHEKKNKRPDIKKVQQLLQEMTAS
Excerpt: as §1

[4] = target: 320 wild-type protein kinases (Homo sapiens, UniProt Q9NYY3); settings: kinase SNK, singlicate
Excerpt: as §1

[5] = target: 320 wild-type protein kinases (Homo sapiens, UniProt Q9Y6E0); settings: singlicate
Excerpt: as §1

Chain of 320 wild-type protein kinases (Homo sapiens, UniProt Q9Y6E0) (Q9Y6E0 whole entry): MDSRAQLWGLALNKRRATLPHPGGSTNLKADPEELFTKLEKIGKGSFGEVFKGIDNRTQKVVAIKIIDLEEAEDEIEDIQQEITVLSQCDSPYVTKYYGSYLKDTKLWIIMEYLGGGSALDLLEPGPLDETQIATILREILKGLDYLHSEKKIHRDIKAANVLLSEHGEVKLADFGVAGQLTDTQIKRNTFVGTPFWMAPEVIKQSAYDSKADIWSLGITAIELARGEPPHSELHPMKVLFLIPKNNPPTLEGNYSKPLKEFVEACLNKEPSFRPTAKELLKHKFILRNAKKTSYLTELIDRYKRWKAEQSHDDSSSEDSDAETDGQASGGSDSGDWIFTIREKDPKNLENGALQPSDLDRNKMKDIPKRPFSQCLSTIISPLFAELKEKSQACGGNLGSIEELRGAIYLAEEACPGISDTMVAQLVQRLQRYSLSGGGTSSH
Chain of 320 wild-type protein kinases (Homo sapiens, UniProt Q9NYY3) (Q9NYY3 whole entry): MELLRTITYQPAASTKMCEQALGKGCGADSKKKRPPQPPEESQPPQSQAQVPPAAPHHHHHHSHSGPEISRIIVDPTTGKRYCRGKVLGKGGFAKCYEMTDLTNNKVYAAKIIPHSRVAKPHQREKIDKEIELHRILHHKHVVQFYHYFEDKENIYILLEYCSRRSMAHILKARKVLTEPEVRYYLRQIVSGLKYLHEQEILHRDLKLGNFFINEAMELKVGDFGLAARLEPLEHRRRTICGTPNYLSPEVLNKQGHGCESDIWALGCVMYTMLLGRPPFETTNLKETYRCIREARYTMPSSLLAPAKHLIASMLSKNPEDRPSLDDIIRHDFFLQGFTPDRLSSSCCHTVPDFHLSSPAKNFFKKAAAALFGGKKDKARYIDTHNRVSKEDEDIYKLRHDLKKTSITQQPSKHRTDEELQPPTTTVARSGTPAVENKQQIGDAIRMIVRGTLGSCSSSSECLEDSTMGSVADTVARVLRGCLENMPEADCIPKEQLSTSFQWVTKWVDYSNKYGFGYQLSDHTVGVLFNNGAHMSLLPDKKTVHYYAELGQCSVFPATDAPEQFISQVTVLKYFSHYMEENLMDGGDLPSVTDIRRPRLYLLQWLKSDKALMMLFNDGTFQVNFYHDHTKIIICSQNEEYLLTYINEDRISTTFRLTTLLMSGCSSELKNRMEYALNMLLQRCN

C#Cc1cc(Nc2ncnc3cc(I)ccc23)ccc1Cl [Compound 41]
Residual activity ([1]; EPHB3, 1.0E-06 M): 100 % of control
Residual activity ([1]; EPHB3, 1.0E-07 M): 110 % of control
Residual activity ([2]; ERK7, 1.0E-06 M): 96 % of control
Residual activity ([2]; ERK7, 1.0E-07 M): 94 % of control
Residual activity ([3]; 1.0E-06 M): 84 % of control
Residual activity ([3]; 1.0E-07 M): 96 % of control
Residual activity, SNK ([4]; assay conc. 1.0E-06 M): 89 % of control
Residual activity, SNK ([4]; assay conc. 1.0E-07 M): 97 % of control
Residual activity ([5]; MST3, 1.0E-06 M): 104 % of control
Residual activity ([5]; MST3, 1.0E-07 M): 116 % of control

C#Cc1cc(Nc2ncnc3cc(OC)c(OC)cc23)ccc1Cl [Compound 45]
Residual activity ([1]; EPHB3, 1.0E-06 M): 113 % of control
Residual activity ([1]; EPHB3, 1.0E-07 M): 99 % of control
Residual activity ([2]; ERK7, 1.0E-06 M): 90 % of control
Residual activity ([2]; ERK7, 1.0E-07 M): 104 % of control
Residual activity ([3]; 1.0E-06 M): 69 % of control
Residual activity ([3]; 1.0E-07 M): 90 % of control
Residual activity, SNK ([4]; assay conc. 1.0E-06 M): 87 % of control
Residual activity, SNK ([4]; assay conc. 1.0E-07 M): 99 % of control
Residual activity ([5]; MST3, 1.0E-06 M): 94 % of control
Residual activity ([5]; MST3, 1.0E-07 M): 93 % of control
